Results reported in patent publication US20100324067A1, “TETRACYCLIC DIPYRANO-COUMARIN COMPOUNDS WITH ANTI-HIV AND ANTI-MYCOBACTERIUM TUBERCULOSIS ACTIVITIES” (priority 2007, published 2010).
≈ marks a conversion by molar mass, not a printed value. Read-outs that look alike come from different tables or passages of the source.

Columns and labels:
[1] = system: Mycobacterium tuberculosis H37Rv (ATCC 27294); experiment: Microplate Alamar Blue Assay (MABA) in BACTEC 12B medium (TAACF screen); format: cell-based; conditions: for IC50: read-out: IC50
[2] = read-out: anti-TB active compound (MIC90 less than 10 μg/mL), classification

| Compound | melting point [°C] | IC50 ([1]; MABA, H37Rv) [µg/mL] | MIC90 ([1]; MABA, H37Rv, read-out: MIC90) [µg/mL] | MIC90 [1, 2] [µg/mL] |
| --- | --- | --- | --- | --- |
| CCCCc1cc(=O)oc2c3c(c4c(c12)OC(CCC)C=C4)OC(C)CC3=O (centres unmarked) [Example 37, 10-methyl-6-n-propyl-4-n-butyl-2H,6H,12H-benzo[1,2-b:3,4-b′:5,6-b″]-tripyranyl-2,12-dione] | 135 to 138 | 5.33 (≈ 13.9 µM) | 8.36 (≈ 21.9 µM) | < 10 |
| CCCCc1cc(=O)oc2c3c(c4c(c12)OC(CCCC)C=C4)OC(C)CC3=O (centres unmarked) [Example 38] | 146 to 148 | 10.4 (≈ 26.3 µM) | 14.4 (≈ 36.4 µM) |  |
| CCCC1C=Cc2c3c(c4oc(=O)c(F)c(CC)c4c2O1)C(=O)CC(C)O3 (centres unmarked) [Example 39, 10-methyl-4-ethyl-6-n-propyl-3-fluoro-2H,6H,12H-benzo[1,2-b:3,4-b′:5,6-b″]-tripyranyl-2,12-dione] | 151 to 153 | 5.09 (≈ 13.7 µM) | 9.94 (≈ 26.7 µM) | < 10 |
| CCCCC1C=Cc2c3c(c4oc(=O)c(F)c(CC)c4c2O1)C(=O)CC(C)O3 (centres unmarked) [Example 40] | 142 to 143 | 1.58 (≈ 4.1 µM) | 2.47 (≈ 6.39 µM) | < 10 |
| CCCc1cc(=O)oc2c3c(c4c(c12)OC(c1ccccc1)C=C4)OC(C)CC3=O (centres unmarked) [Example 41, 10-methyl-4-n-propyl-6-phenyl-2H,6H,12H-benzo[1,2-b:3,4-b′:5,6-b″]-tripyranyl-2,12-dione] | 96 to 99 | 2.92 (≈ 7.25 µM) | 3.27 (≈ 8.12 µM) | < 10 |
| CCc1c(F)c(=O)oc2c3c(c4c(c12)OC(c1ccccc1)C=C4)OC(C)CC3=O (centres unmarked) [Example 42, 10-methyl-4-ethyl-6-phenyl-3-fluoro-2H,6H,12H-benzo[1,2-b:3,4-b′:5,6-b″]-tripyranyl-2,12-dione] | 109 to 111 | 5.56 (≈ 13.7 µM) | 6.81 (≈ 16.7 µM) | < 10 |
| CCCc1c(F)c(=O)oc2c3c(c4c(c12)OC(c1ccccc1)C=C4)OC(C)CC3=O (centres unmarked) [Example 43, 10-methyl-4-n-propyl-6-phenyl-3-fluoro-2H,6H,12H-benzo[1,2-b:3,4-b′:5,6-b″]-tripyranyl-2,12-dione] | 128 to 129 | 6.42 (≈ 15.3 µM) | 10.8 (≈ 25.7 µM) |  |
| CCCCC1C=Cc2c3c(c4oc(=O)c(Cl)c(CCC)c4c2O1)C(=O)CC(C)O3 (centres unmarked) [Example 49, 10-methyl-4-n-propyl-3-chloro-6-n-butyl-2H,6H,12H-benzo[1,2-b:3,4-b′:5,6-b″]-tripyranyl-2,12-dione] | 146 to 149 | 4.62 (≈ 11.1 µM) | 6.4 (≈ 15.3 µM) | < 10 |
| CCCc1cc(=O)oc2c3c(c4c(c12)OC(CCC)C=C4)OCC(C)C3=O (centres unmarked) [Example 51] | 148 to 150 | < 0.2 | 0.496 (≈ 1.35 µM) | < 10 |
| CCCc1cc(=O)oc2c3c(c4c(c12)OC(CC)C=C4)OC(C)CC3=O (centres unmarked) [Example 52, 10-methyl-4-n-propyl-6-ethyl-2H,6H,12H-benzo[1,2-b:3,4-b′:5,6-b″]-tripyranyl-2,12-dione] | 139 to 141 | 11.8 (≈ 33.2 µM) | 13.4 (≈ 37.8 µM) |  |
| CCc1cc(=O)oc2c3c(c4c(c12)OC(CC)C=C4)OC(C)CC3=O (centres unmarked) [Example 53, 10-methyl-4,6-diethyl-2H,6H,12H-benzo[1,2-b:3,4-b′:5,6-b″]-tripyranyl-2,12-dione] | 129 to 131 | 6.1 (≈ 17.9 µM) | 6.85 (≈ 20.1 µM) | < 10 |
| CCCc1c(Cl)c(=O)oc2c3c(c4c(c12)OC(CC)C=C4)OC(C)CC3=O (centres unmarked) [Example 54, 10-methyl-4-n-propyl-6-ethyl-3-chloro-2H,6H,12H-benzo[1,2-b:3,4-b′:5,6-b″]-tripyranyl-2,12-dione] | 145 to 147 | 36.5 (≈ 93.9 µM) | 61.8 (≈ 159 µM) |  |
| CCc1c(F)c(=O)oc2c3c(c4c(c12)OC(CC)C=C4)OC(C)CC3=O (centres unmarked) [Example 55, 10-methyl-4,6-diethyl-3-fluoro-2H,6H,12H-benzo[1,2-b:3,4-b′:5,6-b″]-tripyranyl-2,12-dione] | 144 to 146 | < 0.2 | 1.07 (≈ 2.99 µM) | < 10 |
| CCCc1c(F)c(=O)oc2c3c(c4c(c12)OC(CC)C=C4)OC(C)CC3=O (centres unmarked) [Example 56, 10-methyl-4-n-propyl-6-ethyl-3-fluoro-2H,6H,12H-benzo[1,2-b:3,4-b′:5,6-b″]-tripyrany 1-2,12-dione] | 147 to 149 | 62.3 (≈ 167 µM) | > 100 |  |
| CCCc1cc(=O)oc2c3c(c4c(c12)OC(C)(C)C=C4)OC(CN=[N+]=[N-])CC3=O (centres unmarked) [Example 58] | 116 to 117 | 34.5 (≈ 87.2 µM) | 54.9 (≈ 139 µM) |  |
| CCCc1cc(=O)oc2c3c(c4c(c12)OC(C)(C)C=C4)OC(CNC(=O)Nc1ccc(F)cc1)CC3=O (centres unmarked) [Example 60, 6,6-dimethyl-4-n-propyl-10-(p-fluorophenylureido)methylene-2H,6H,12H-benzo[1,2-b:3,4-b′:5,6-b″]-tripyranyl-2,12-dione] | 119 to 120.5 | 32.5 (≈ 64.3 µM) | > 100 |  |
| CCCc1cc(=O)oc2c3c(c4c(c12)OC(C)(C)C=C4)OC(CNS(=O)(=O)c1ccc(NC(C)=O)cc1)CC3=O (centres unmarked) [Example 61, 6,6-dimethyl-4-n-propyl-10-(p-acetylaminophenylsulfonamido)methylene-2H,6H,12H-benzo[1,2-b:3,4-b′:5,6-b″]-tripyranyl-2,12-dione] | 127 to 128.5 | 17.2 (≈ 30.4 µM) | > 100 |  |
| CCCc1cc(=O)oc2c(-c3cccn3Cc3ccccn3)c(O)c3c(c12)OC(C)(C)C=C3 [Example 68, 5-hydroxy-6-(1′-(2-pyridyl)methylene-1′H-pyrrolyl-2′-ene)-2,2-dimethyl-10-n-propyl-2H-benzo-[2,3-f]-pyranyl-8-one] | 171 to 173 | 33 (≈ 74.6 µM) | 44.9 (≈ 101 µM) |  |
| CCCc1cc(=O)oc2c3c(c4c(c12)OC(c1ccccc1)C=C4)OCC(C)C3=O (centres unmarked) [Example 78, 4-n-propyl-6-phenyl-11-methyl-2H,6H,12H-benzo[1,2-b:3,4-b′:5,6-b″]-tripyranyl-2,12-dione] | 187 to 189 | 99 (≈ 246 µM) | > 100 |  |
| CCCc1cc(=O)oc2c3c(c4c(c12)OC(C)C=C4)OC(C)CC3=O (centres unmarked) [Example 80, 6,10-dimethyl-4-n-propyl-2H,6H,12H-benzo[1,2-b:3,4-b′:5,6-b″]-tripyranyl-2,12-dione] | 125 to 127 | 3.42 (≈ 10 µM) | 5.46 (≈ 16 µM) | < 10 |
| CCCc1c(F)c(=O)oc2c3c(c4c(c12)OC(C)C=C4)OC(C)CC3=O (centres unmarked) [Example 84, 6,10-dimethyl-4-n-propyl-3-fluoro-2H,6H,12H-benzo[1,2-b:3,4-b′:5,6-b″]-tripyranyl-2,12-dione] | 150 to 153 | 17.3 (≈ 48.3 µM) | 27.7 (≈ 77.3 µM) |  |
| C/C=C/C1C=Cc2c3c(c4oc(=O)cc(CCC)c4c2O1)C(=O)CC(C)O3 (centres unmarked) [Example 85, 4-n-propyl-6-propenyl-1-methyl-2H,6H,12H-benzo[1,2-b:3,4-b′:5,6-b″]-tripyranyl-2,12-dione] | 136 to 138 | 2.08 (≈ 5.68 µM) | 4.86 (≈ 13.3 µM) | < 10 |
| CCc1c(F)c(=O)oc2c3c(c4c(c12)OCC(C)=C4)OC(C)CC3=O (centres unmarked) [Example 93, 4-ethyl-3-fluoro-7,10-dimethyl-2H,6H,12H-benzo[1,2-b:3,4-b′:5,6-b″]-tripyranyl-2,12-dione] | 118 to 120 | 76.2 (≈ 221 µM) | > 100 |  |
